Data taken from ChEMBL document CHEMBL1148702, “Orally bioavailable potent soluble epoxide hydrolase inhibitors” (J Med Chem, 2007).

What was measured:
[1] = in vivo; details: dog, plasma, po, 0.3 mg/kg
[2] = test system: Liver microsomes; details: human

Row | AUC [1] | Stability [2] | Compound
1 | 0.0667 µM·h |  | O=C(O)CCCCCCCCCCCNC(=O)NC12CC3CC(CC(C3)C1)C2
2 |  | 26% | O=C(NC12CC3CC(CC(C3)C1)C2)N[C@H]1CC[C@@H](OCc2c(Cl)cccc2Cl)CC1
3 |  | 29% | CC(C)Oc1cc(F)c(CO[C@H]2CC[C@@H](NC(=O)NC34CC5CC(CC(C5)C3)C4)CC2)c(F)c1
4 |  | 20% | O=C(NC12CC3CC(CC(C3)C1)C2)N[C@H]1CC[C@@H](OCc2ccc(Br)cc2)CC1
5 | 0.317 µM·h |  | CCOCCOCCOCCCCCNC(=O)NC12CC3CC(CC(C3)C1)C2
6 |  | 41% | O=C(NC12CC3CC(CC(C3)C1)C2)N[C@H]1CC[C@H](OCc2ccc(Br)cc2)CC1
7 |  | 54% | O=C(NC12CC3CC(CC(C3)C1)C2)N[C@H]1CC[C@H](OCc2ccccc2Cl)CC1
8 |  | 51% | O=C(NC12CC3CC(CC(C3)C1)C2)N[C@H]1CC[C@H](OCc2c(Cl)cccc2Cl)CC1
9 |  | 23% | O=C(NC12CC3CC(CC(C3)C1)C2)N[C@H]1CC[C@H](Oc2ccc(Br)cc2)CC1
10 |  | 69% | O=C(NC12CC3CC(CC(C3)C1)C2)N[C@H]1CC[C@H](Oc2ccc(F)cc2)CC1
11 |  | 35% | O=C(NC12CC3CC(CC(C3)C1)C2)N[C@H]1CC[C@@H](Oc2ccc(Br)cc2)CC1
12 |  | 14% | COc1ccc(O[C@H]2CC[C@@H](NC(=O)NC34CC5CC(CC(C5)C3)C4)CC2)cc1
13 |  | 15% | O=C(NC12CC3CC(CC(C3)C1)C2)N[C@H]1CC[C@@H](Oc2ccc([N+](=O)[O-])cc2)CC1
14 |  | 25% | O=C(NC12CC3CC(CC(C3)C1)C2)N[C@H]1CC[C@@H](OCc2ccccc2Cl)CC1
15 |  | 21% | O=C(NC12CC3CC(CC(C3)C1)C2)N[C@H]1CC[C@@H](Oc2ccc(F)cc2)CC1
16 |  | 43% | O=C(NC12CC3CC(CC(C3)C1)C2)N[C@H]1CC[C@H](OCc2c(F)cccc2F)CC1
17 |  | 19% | O=C(NC12CC3CC(CC(C3)C1)C2)N[C@H]1CC[C@@H](OCc2c(F)cccc2F)CC1
18 |  | 67% | O=C(NC12CC3CC(CC(C3)C1)C2)N[C@H]1CC[C@H](OCc2ccccc2)CC1
19 |  | 67% | Cc1ccccc1CO[C@H]1CC[C@H](NC(=O)NC23CC4CC(CC(C4)C2)C3)CC1
20 |  | 20% | O=C(NC12CC3CC(CC(C3)C1)C2)N[C@H]1CC[C@@H](Oc2cc(F)cc(F)c2)CC1
21 |  | 14% | Cc1ccccc1CO[C@H]1CC[C@@H](NC(=O)NC23CC4CC(CC(C4)C2)C3)CC1
22 |  | 34% | CC(C)Oc1cc(F)c(CO[C@H]2CC[C@H](NC(=O)NC34CC5CC(CC(C5)C3)C4)CC2)c(F)c1
23 |  | 82% | COc1ccc(O[C@H]2CC[C@H](NC(=O)NC34CC5CC(CC(C5)C3)C4)CC2)cc1
